Laboratory results: PubChem BioAssay AID1963963 (Molecular Pharmacology Branch, DTP, NCI, 2024)

Tested on: 958667-338-R-J2-PDC tumor spheroids viability
Experiment: Anticancer human tumor 958667-338-R-J2-PDC patient-derived colon adenocarcinoma cell line growth inhibition [PI3K]
Details: spheroids with HUVEC and MSC; for viability, T/C: stronger effect = lower value
Summary of the method: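 Tumor cells were combined with HUVEC and MSCs into spheroids, then dosed with PI3K-inhibitor combinations over half-log ranges capped near clinical Cmax or 10 microM.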
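Further: spheroids exposed to compounds for seven days before readout.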

Structure (SMILES): CCN1CCN(Cc2ccc(Nc3ncc(F)c(-c4cc(F)c5nc(C)n(C(C)C)c5c4)n3)nc2)CC1 + COc1c(OCCCN2CCOCC2)ccc2c3n(c(=NC(=O)c4cnc(N)nc4)nc12)CCN3
- IC50 (curve of first compound, second compound 0.00316 µM): > 1000 nM
- IC50 (curve of first compound, second compound 0.01 µM): > 1000 nM
- IC50 (curve of first compound, second compound 0.0316 µM): 344 nM
- IC50 (curve of first compound, second compound 0.1 µM): 4.7 nM
- IC50 (curve of first compound, second compound 0.316 µM): < 3.16 nM
- IC50 (curve of first compound, second compound 1 µM): < 3.16 nM
- viability, T/C (second compound 0.00316 µM, first compound 0.00316 µM): 100%
- viability, T/C (second compound 0.00316 µM, first compound 0.01 µM): 106%
- viability, T/C (second compound 0.00316 µM, first compound 0.0316 µM): 82.9%
- viability, T/C (second compound 0.00316 µM, first compound 0.1 µM): 67.2%
- viability, T/C (second compound 0.00316 µM, first compound 0.316 µM): 68.3%
- viability, T/C (second compound 0.00316 µM, first compound 1 µM): 64.3%
- viability, T/C (second compound 0.01 µM, first compound 0.00316 µM): 69.7%
- viability, T/C (second compound 0.01 µM, first compound 0.01 µM): 87.8%
- viability, T/C (second compound 0.01 µM, first compound 0.0316 µM): 87.8%
- viability, T/C (second compound 0.01 µM, first compound 0.1 µM): 65.5%
- viability, T/C (second compound 0.01 µM, first compound 0.316 µM): 57.4%
- viability, T/C (second compound 0.01 µM, first compound 1 µM): 51.5%
- viability, T/C (second compound 0.0316 µM, first compound 0.00316 µM): 67.5%
- viability, T/C (second compound 0.0316 µM, first compound 0.01 µM): 61.2%
- viability, T/C (second compound 0.0316 µM, first compound 0.0316 µM): 58.6%
- viability, T/C (second compound 0.0316 µM, first compound 0.1 µM): 57.3%
- viability, T/C (second compound 0.0316 µM, first compound 0.316 µM): 48.4%
- viability, T/C (second compound 0.0316 µM, first compound 1 µM): 46.1%
- viability, T/C (second compound 0.1 µM, first compound 0.00316 µM): 53.9%
- viability, T/C (second compound 0.1 µM, first compound 0.01 µM): 41.4%
- viability, T/C (second compound 0.1 µM, first compound 0.0316 µM): 40.1%
- viability, T/C (second compound 0.1 µM, first compound 0.1 µM): 39%
- viability, T/C (second compound 0.1 µM, first compound 0.316 µM): 33.6%
- viability, T/C (second compound 0.1 µM, first compound 1 µM): 32.1%
- viability, T/C (second compound 0.316 µM, first compound 0.00316 µM): 34.4%
- viability, T/C (second compound 0.316 µM, first compound 0.01 µM): 33.4%
- viability, T/C (second compound 0.316 µM, first compound 0.0316 µM): 33.8%
- viability, T/C (second compound 0.316 µM, first compound 0.1 µM): 22.3%
- viability, T/C (second compound 0.316 µM, first compound 0.316 µM): 22.2%
- viability, T/C (second compound 0.316 µM, first compound 1 µM): 25.3%
- viability, T/C (second compound 1 µM, first compound 0.00316 µM): 16.9%
- viability, T/C (second compound 1 µM, first compound 0.01 µM): 14.7%
- viability, T/C (second compound 1 µM, first compound 0.0316 µM): 16.5%
- viability, T/C (second compound 1 µM, first compound 0.1 µM): 14.3%
- viability, T/C (second compound 1 µM, first compound 0.316 µM): 16.6%
- viability, T/C (second compound 1 µM, first compound 1 µM): 18.1%

Structure (SMILES): Cn1ncnc1[C@H]1c2n[nH]c(=O)c3cc(F)cc(c23)N[C@@H]1c1ccc(F)cc1
- viability, T/C (compound 0.000316 µM): 115% [middle of 4 runs]
- viability, T/C (compound 0.001 µM): 110% [middle of 4 runs]
- viability, T/C (compound 0.00316 µM): 97.5% [middle of 4 runs]
- viability, T/C (compound 0.0316 µM): 103% [middle of 4 runs]
- viability, T/C (compound 0.1 µM): 99.1% [middle of 4 runs]
- IC50 (curve of compound): > 100 nM
